Reference: the NIST ThermoML archive (doi:10.1016/j.jct.2014.02.022)
± gives the expanded uncertainty stated by the source.

Tests used:
[1] = mn = molality of the nth substance listed, in mol/kg; settings: 101 kPa, Liquid; for viscosity: Capillary tube (Ostwald / Ubbelohde) method; for mass density: Vibrating tube method
[2] = 101 kPa, Liquid; for viscosity: Capillary tube (Ostwald / Ubbelohde) method; for mass density: Vibrating tube method

Cc1ncc(CO)c(CO)c1O.Cl [5-hydroxy-6-methyl-3,4-pyridinedimethanol hydrochloride] + CO
viscosity ([1]; 298.15 K, m1 = 0.0127): 0.5562 ± 0.012 mPa·s
viscosity ([1]; 298.15 K, m1 = 0.0254): 0.5621 ± 0.012 mPa·s
viscosity ([1]; 298.15 K, m1 = 0.0382): 0.5712 ± 0.012 mPa·s
mass density ([1]; 298.15 K, m1 = 0.0127): 789.07 ± 1 kg/m3
mass density ([1]; 298.15 K, m1 = 0.0254): 789.94 ± 1 kg/m3
mass density ([1]; 298.15 K, m1 = 0.0382): 790.86 ± 1 kg/m3
viscosity ([1]; 308.15 K, m1 = 0.0127): 0.4853 ± 0.01 mPa·s
viscosity ([1]; 308.15 K, m1 = 0.0254): 0.4955 ± 0.01 mPa·s
viscosity ([1]; 308.15 K, m1 = 0.0382): 0.5034 ± 0.011 mPa·s
mass density ([1]; 308.15 K, m1 = 0.0127): 778.65 ± 1 kg/m3
mass density ([1]; 308.15 K, m1 = 0.0254): 779.85 ± 1 kg/m3
mass density ([1]; 308.15 K, m1 = 0.0382): 780.83 ± 1 kg/m3
viscosity ([1]; 318.15 K, m1 = 0.0127): 0.4275 ± 0.009 mPa·s
viscosity ([1]; 318.15 K, m1 = 0.0254): 0.4468 ± 0.0094 mPa·s
viscosity ([1]; 318.15 K, m1 = 0.0382): 0.464 ± 0.0098 mPa·s
mass density ([1]; 318.15 K, m1 = 0.0127): 769.25 ± 1 kg/m3
mass density ([1]; 318.15 K, m1 = 0.0254): 770.18 ± 1 kg/m3
mass density ([1]; 318.15 K, m1 = 0.0382): 771.13 ± 1 kg/m3

CO [methanol]
viscosity ([2]; 298.15 K): 0.543 ± 0.011 mPa·s
mass density ([2]; 298.15 K): 786.67 ± 1 kg/m3
viscosity ([2]; 308.15 K): 0.4708 ± 0.0099 mPa·s
mass density ([2]; 308.15 K): 777.18 ± 1 kg/m3
viscosity ([2]; 318.15 K): 0.4194 ± 0.0088 mPa·s
mass density ([2]; 318.15 K): 767.75 ± 1 kg/m3

CO [methanol] + Cc1ncc(CO)c(CO)c1O.Cl
viscosity ([1]; 298.15 K, m2 = 0): 0.543 ± 0.011 mPa·s
mass density ([1]; 298.15 K, m2 = 0): 786.67 ± 1 kg/m3
viscosity ([1]; 308.15 K, m2 = 0): 0.4708 ± 0.0099 mPa·s
mass density ([1]; 308.15 K, m2 = 0): 777.18 ± 1 kg/m3
viscosity ([1]; 318.15 K, m2 = 0): 0.4194 ± 0.0088 mPa·s
mass density ([1]; 318.15 K, m2 = 0): 767.75 ± 1 kg/m3
